From patent publication US10945980B2, “Treatment for myopia” (The University of Newcastle, priority 2016, dated 2021)

How the values were obtained:
[1] = test system: lens-induced myopia in guinea pigs; test: L-arginine eye drops in −6D lens-induced myopia; type: in vivo, guinea pig (Cavia porcellus)
Description: Guinea pigs (pigmented variety, Cavia porcellus) were bred, housed, and raised as described in Example 1. Lights were on a 12 hr light 12 hr dark cycle. The University of Newcastle Animal Care and ethics Committee approved all procedures.
Two experimental protocols were employed (see Table 4). In Experiment 1, young guinea pigs wore a −6D lens on one eye from 5-12 days of age. They were randomly divided within each litter into two groups of 10 animals each, and received either a drop of L-Arginine (100 mM, 1.7%) in Saline (pH 7.4) or Saline alone (0.9%, pH 7.4) twice per day in the eye wearing the lens (Table 4). Drops were administered at the beginning of their light cycle and again approximately 6 hrs later in the middle of their day cycle. Lenses were removed during the drop administration which occurred under dim red light or in darkness. A single large drop was bathed on the cornea for 3 min in the lens-wearing eye in hand held animals. A clean lens was then reintroduced onto the eye. In Experiment 2, 14 guinea pigs were given eye drops in the same manner as in Experiment 1, but in both eyes and without any lens-wear, to determine the effect of the eye drops on normal eye growth. Animals received one drop of either 1.7% L-arginine (n=7) or atropine (Minims Atropine Sulphate 1%, Bausch & Lomb, preservative free, n=7) in one eye and saline (0.9%) in the other eye twice per day from 9-16 days of age.
In Experiment 1, at the end of the lens-wearing period, at 12 days of age just before the morning lights came on, both eyes were cyclopleged (1% Cyclopentolate—to paralyse the focussing muscles of the eye to a resting state) and 1.25 hours later, refractive error (RE) was measured. Animals were then anaesthetised with gaseous anaesthetic (1.5% isoflurane in oxygen) and eye length measures were taken in both eyes with high frequency ultrasound as described in Example 1. Biometry measures were also taken in the same manner before the lens wear period at 5 days of age. [No refractive measures were done at 5 days of age as cycloplegia could have interfered with the drug or lens response]. In Experiment 2, refractive error and eye length using ultrasound were measured in the same manner at 17 days of age, 24 hours after the previous drop was administered.
In Experiment 1, lens-induced myopia was achieved by attaching −6D concave lenses to matching Velcro arcs glued above and below the experimental eye as previously described (Howlett & McFadden, 2009). Lenses were exchanged with a clean lens after drop administration.
After cycloplegia was induced, refractive error was measured in each eye using an Autorefractor (Nidek AR-20, Japan). The spherical equivalent was calculated as the average of the sphere plus half the cylinder as is normal in clinical practice. All reported refractive errors are the spherical equivalent. Next, ocular length was measured using high frequency ultrasound (20 MHz) as previously described (McFadden et al, 2004). At least 20 traces were recorded for each eye and distances were averaged for at least 10 of these recordings. Peaks from the recordings were selected for the back of the cornea, the crystalline lens, and the vitreous chamber, and the layers at the back of the eye: the retina, choroid, and sclera. Ocular length was defined as the summed measurement from the front of the cornea to the back of the sclera.
Differences between the two eyes were analysed by a 2-tailed T-tests. The mean of calculated differences between the two eyes is referred to as relative myopia or relative ocular length and the difference in the change in ocular length in the treated compared to the untreated eye as relative growth.

[2] = test system: guinea pig eyes not form deprived; test: Intravitreal L-arginine in eyes not form deprived (control groups of Example 2); type: in vivo, guinea pig (Cavia porcellus); conditions: 2.2 mM L-arginine vs vehicle, no FD
Description: Animals were assigned to one of seven treatment groups (Table 1). From seven days of age, five of these groups were form deprived in the right eye for 3 days with a diffuser (two groups wore no diffusers and served as controls for form deprived animals). Six groups of animals were intravitreally injected with either L-arginine or physiological saline once per day, just before lights came on at 10 am. One group wore diffusers, but received no injection as a control. At ten days of age, cycloplegia was induced in all animals and refractive error and ocular components were measured. Two retinas, one a saline control and another that had been injected with the highest dose of L-arginine, were analysed by histochemistry for morphological markers of L-arginine induced toxicity.
To establish the size of the guinea pig vitreous, and thus the molarity of the substrate within the eye, ten vitreous chambers were extracted from ten eyes. The volume of the vitreous was 125 μl. Based on this, three drug doses of L-arginine were employed: low (0.4 mM), medium (2.2 mM) and high (non-toxic: 9.3 mM) (See Table 1). […]
Cycloplegia was induced as described in Example 1, and refractive error subsequently measured as described in Example 1.
Ocular length and axial components were also determined as described in Example 1. […]

N=C(N)NCCC[C@H](N)C(=O)O [L-arginine]
animals that did not develop myopia in the lens-wearing eye ([1]; 1.7% (100 mM) LA eye drops twice daily, −6D lens): 7/10
relative eye growth (mean growth in ocular length) across all animals ([1]; 1.7% LA eye drops twice daily, between 5 and 12 days of age, −6D lens, p=0.01 vs saline): 42±17 μm
relative growth in the 70% of animals which failed to develop myopia ([1]; 1.7% LA eye drops twice daily, between 5 and 12 days of age, p=0.44): 10±12 μm
animals protected from developing myopia ([1]; 1.7% LA eye drops twice daily, −6D lens): 70%
relative myopia in the 7 animals that did not develop myopia ([1]; 1.7% LA eye drops twice daily, −6D lens, p=0.000 vs saline): −2.5±0.7 D
relative myopia, mean across all 10 animals ([1]; 1.7% LA eye drops twice daily, −6D lens, p=0.007 vs saline): −3.6±0.8 D
mean myopia as percent of that in control animals ([1]; 1.7% LA eye drops, the 70% of animals protected): 37%
mean refractive error in untreated eyes ([1]; untreated fellow eyes of LA group at 12 days of age, 1.7% LA eye drops twice daily in the other eye): +5.2±0.5 D
difference in relative refractive error between the two groups that were not form deprived ([2]; daily 10 μl intravitreal injection for 3 days, p=0.46): −0.2 D
difference in ocular length between groups not form deprived ([2]; intravitreal, p=0.44): 83 μm
